Measurements reported in patent US12691109B2, “Bifunctional aggregation-induced emission luminogen for monitoring and killing of multidrug-resistant bacteria” (The Hong Kong University of Science and Technology, priority 2018, dated 2026).

Key:
Type in all cases: cell-based
MDR E. coli = experiment: Bacteria staining with TriPE-NT and PI, CLSM; settings: 10 min
Experimental: (§1) FIG. 21B is a graph plotting stained percentages for E. coli, MDR E. coli, K. pneumoniae, MDR K. pneumoniae, S. epidermidis, MDR S. epidermidis, S. aureus, and MDR S. aureus.
(§2) FIG. 21C is a graph plotting percentage of dead bacteria stained by propidium iodine (PI) after the bacteria were incubated with 10 μM of TriPE-NT or PI for 10 min.
(§3) TriPE-NT: Ex=405 nm, Em=500-560 nm; PI: Ex=514, Em=600-700. The scale bar is equal to 5 μm.
(§4) To indicate the status of the bacteria after TriPE-NT treatment, the bacteria was incubated with commercial dead bacteria-staining fluorescent reagent propidium iodide (PI) and TriPE-NT at the same time. Thanks to the AIE characteristics and water solubility of TriPE-NT, there was almost no background fluorescence in the imaging field. E. coli and S. epidermidis, which emitted bright orange (TriPE-NT) or red (PI) fluorescence, are clearly visualized under confocal laser scanning microscope (CLSM) (FIG. 21A-C, 22-23). […] In comparison, relatively low percentage of Gram-negative bacteria were stained by TriPE-NT (e.g., 88.1±9.8% E. coli, 84.3±12.7% MDR E. coli, 47.9±7.7% K. pneumoniae and 35.8±4.9% MDR K. pneumoniae) (FIG. 21B, FIG. 22). […] By contrast, relatively low percentages of E. coli (22.1±12.2% E. coli) were co-stained by both TriPE-NT and PI (FIGS. 21A, C), which is also similar to other Gram-negative bacteria (15.3±3.7%, MDR E. coli, 8.8±3.2%, K. pneumoniae and 6.4±2.6% MDR K. pneumoniae) (FIGS. 21A & C, 22). The reason for this difference possibly is ascribed to the extra membrane of Gram-negative bacteria which is absent in Gram-positive bacteria. These observations also illustrated that both Gram-negative bacteria and Gram-positive bacteria are vulnerable to TriPE-NT treatment, the possible reason is that these bacteria with negatively charged membranes, could anchor, uptake, and aggregate the positively charged probe, which restricts the intramolecular motion of the probe and causes their fluorescence emission.

K. pneumoniae = experiment: Bacteria staining with TriPE-NT and PI, CLSM; settings: 10 min
Experimental: as §1, §2, §3, §4

MDR K. pneumoniae = experiment: Bacteria staining with TriPE-NT and PI, CLSM; settings: 10 min
Experimental: as §1, §2, §3, §4

[1] = test system: human umbilical vein endothelial cells (HUVECs); experiment: Cytotoxicity, CCK-8 kit
Experimental: (§5) FIGS. 18A-B are graphs depicting cell viability of human amniotic fluid stem cells (HAFs) and human umbilical vein endothelial cells (HUVECs) after incubation with TriPE-NT at different concentrations of 0, 2, 5, 10 and 20 μM under dark conditions and upon white-light illumination (4 mW cm^−2) for 2 and 30 min.
(§6) Cytotoxicity of the TriPE-NT was tested because a good antibacterial drug should have the ability to kill only bacteria and have no toxicity to human or animal cells. The biocompatibility of TriPE-NT was evaluated by CCK-8 kit.

[2] = test system: human skin fibroblast cells (HAFs); experiment: Cytotoxicity, CCK-8 kit
Experimental: as §5, §6

E. coli = experiment: Light-enhanced bacteria killing, plate counting method
Experimental: (§7) FIGS. 15C-F are graphs depicting bacteria survival rates for bacteria that were incubated with TriPE-NT (10 μM) for 10 min, the bacteria suspensions (50 μL) were plated on agar plates and treated by white-light illumination (4 mW cm^−2) for 0, 2 and 30 min respectively. FIG. 15C is a graph plotting survival rate versus time of E. coli and MDR E. coli. FIG. 15D is a graph plotting survival rate versus time of K. pneumoniae and MDR K. pneumoniae. FIG. 15E is a graph plotting survival rate versus time of S. epidermidis and MDR S. epidermidis. FIG. 15F is a graph plotting survival rate versus time of S. aureus and MDR S. aureus.
(§8) FIGS. 16A-B are graphs depicting bacteria survival rates for bacteria that were incubated with TriPE-NT (0, 5, 10 μM) for 0 (S-0) and 10 (S-10) min, the bacteria suspensions (50 μL) were plated on agar plates and treated by white-light illumination (4 mW cm^−2) for 2 (I-2), 10 (I-10) and 30 (I-30) min respectively. FIG. 16A is a graph plotting the survival rate versus time of E. coli. FIG. 16B is a graph plotting the survival rate versus time of S. epidermidis.
(§9) The bacteria killing effect of TriPE-NT was evaluated on both wild and clinically isolated MDR bacteria by a traditional plate counting method. First, E. coli and S. epidermidis, as the representative of Gram-negative (G−) and Gram-positive (G+) bacteria, were used to determine the effective bactericidal concentration and illumination time. The bacteria were incubated with TriPE-NT (0, 5, 10 μM) for 0 and 10 min, the bacteria suspensions (50 μL) were plated on agar plates and treated by white-light illumination (4 mW cm^−2) for 2, 10 and 30 min respectively (FIGS. 16A-B). […] Thus, 10 μM TriPE-NT and light irradiation for 2 min or 30 min were set as experimental conditions in the following experiments.

S. epidermidis = experiment: as above; settings: 5 μM, light irradiation of 2 min
Experimental: as §7, §8, §9

[3] = 2, 5, 10 and 20 RM, absence of white light irradiation
[4] = white light 4 mW cm^−2, 2 and 30 min

What does the source list for `COc1ccc(C(=Cc2ccc(-c3ccc4c5c(cccc35)C(=O)N(CCCCn3c[n+](Cc5ccc(F)cc5F)cn3)C4=O)cc2)c2ccc(OC)cc2)cc1` [TriPE-NT]?
percentage of MDR E. coli co-stained by TriPE-NT and PI (dead bacteria) (MDR E. coli; 10 μM TriPE-NT and PI): 15.3±3.7%; percentage of MDR E. coli stained by TriPE-NT (MDR E. coli; 10 μM): 84.3±12.7%; percentage of K. pneumoniae co-stained by TriPE-NT and PI (dead bacteria) (K. pneumoniae; 10 μM TriPE-NT and PI): 8.8±3.2%; percentage of K. pneumoniae stained by TriPE-NT (K. pneumoniae; 10 μM): 47.9±7.7%; percentage of MDR K. pneumoniae co-stained by TriPE-NT and PI (dead bacteria) (MDR K. pneumoniae; 10 μM TriPE-NT and PI): 6.4±2.6%; percentage of MDR K. pneumoniae stained by TriPE-NT (MDR K. pneumoniae; 10 μM): 35.8±4.9%; cell viability of HUVECs [1, 3]: not significantly changed; cytotoxicity to HUVECs with increase of irradiation time [1, 4]: no obvious cytotoxicity; cell viability of HAFs [2, 3]: not significantly changed; cytotoxicity to HAFs with increase of irradiation time [2, 4]: no obvious cytotoxicity; E. coli killed (E. coli; 10 μM, white light 4 mW cm^−2, 30 min): killed all and all; survival rate of E. coli (E. coli; in darkness, 10 μM TriPE-NT): approximately 6.8±0.6%; S. epidermidis killed (S. epidermidis): all S. epidermidis were killed
